According to patent US20250281540A1, “Methods for Haematopoietic Stem Cell Transplantation” (Ospedale San Raffaele S.r.l., priority 2022, published 2025):

Columns and labels:
[1] = system: GFP+ cells within the hCD45+ population; assay: M-HSCT in hematochimeric mice with drug-resistant CXCR4 variant; AMD3465 protocol; type: in vivo, NSGW41 or NBSGW mice
Description: FIG. 12. […] NSGW41 or NBSGW mice were humanized with human mobilized peripheral blood CD34+ cells until 10% chimerism was achieved. Mice were then mobilized with G-CSF for 7 days through subcutaneous pump implantations and with two injections of AMD3100 and BIO5192 at day 6 and 7. For the second transplant, GFP lentiviral vector-transduced cells from the same donor used to humanize the mice were electroporated with either CXCR4 wild type or CXCR4^D262N variant. The donor cells were then transplanted either at 3 h or immediately after the last injection of AMD3100. • (B) Human chimerism over time after mobilization, expressed as % of human CD45+ cells present in peripheral blood (right panel), and exchange efficiency (left panel) expressed as % of GFP+ cells within the hCD45+ population. CXCR4 Var=CXCR4 D262N. • (C) Mobilization efficiency of the standard protocol (G7AB) or the modified protocol with AMD3465 (G7AB*) measured as white blood cell count (WBC, left panel), and human CD34+CD38− cells (right panel). • (D) Human chimerism over time after mobilization, expressed as % of hCD45+ cells in peripheral blood (right panel), and exchange efficiency (left panel) expressed as % of GFP+ cells within the hCD45+ population. […]

[2] = system: WBC, LSK and SLAM HSC; assay: Mobilization protocols in Cd40Ig^−/− mice (PB and BM counts); type: in vivo
Description: To investigate the therapeutic potential of M-HSCT, we took advantage of Cd40Ig^−/− mice, which faithfully recapitulate the phenotype of the human primary combined immunodeficiency Hyper IgM Syndrome 1 (HIGM-1; Renshaw, B. R., et al. (1994). J Exp Medicine 180, 1889-1900). Because G-CSF treatment may have a detrimental effect on the BM niche, we investigated the efficiency of mobilization protocols differing for its presence or absence, the G-CSF dose and the duration and combination with other drugs (FIG. 2A).
(§1) Blood samples were also analysed with the hemocytometer Sysmex KX-21N (Block scientific, Sysmex corporation) to quantify absolute numbers.
Different protocols were tested in Cd40Ig^−/− mice: (i) s.c. pump delivering 250 μg/kg/day of G-CSF for 7 days (G7); (ii) s.c. pump delivering 250 μg/kg/day of G-CSF for 7 days, with i.p. injections of AMD3100 (5 mg/kg/day) on day 6 and 7 (G7A); (iii) s.c. pump delivering 250 μg/kg/day of G-CSF for 7 days, with i.p. injections of AMD3100 (5 mg/kg/day) and BIO5192 (1 mg/kg/day) on day 6 and 7 (G7AB); (iv) s.c. pump delivering 125 μg/kg/day of G-CSF for 7 days, with i.p. injections of AMD3100 (5 mg/kg/day) and BIO5192 (1 mg/kg/day) on day 6 and 7 (G7AB-H); (v) G-CSF delivered by i.p. injections (125 μg/kg) every 12 hours for four days, with AMD3100 s.c. injections (5 mg/kg) 14 hours after the last dose of G-CSF (G5A); (vi) G-CSF delivered by i.p. injections (125 μg/kg) every 12 hours for four days, with AMD3100 (5 mg/kg) and BIO5192 (1 mg/kg) s.c. injections 14 hours after the last dose of G-CSF (G5AB); (vii) s.c. pump delivering 250 μg/kg/day of G-CSF for 3 days, with i.p. injections of AMD3100 (5 mg/kg/day) and BIO5192 (1 mg/kg/day) on day 6 and 7 (G3AB); (viii) s.c. pump delivering 125 μg/kg/day of G-CSF for 3 days, with i.p. injections of AMD3100 (5 mg/kg/day) and BIO5192 (1 mg/kg/day) on day 6 and 7 (G3AB-H); and (ix) AMD3100 (5 mg/kg/day) and BIO5192 (1 mg/kg/day) i.p. injected for three days.
Bone marrow vacancy and estimated chimerism were calculated based on the following formulas in Cd40Ig^−/− mice (summarized in table below): • To determine the total number of SLAM HSC per mouse at steady state (FIG. 2G, left panel), lower limbs (which account for 20% of the total BM) were collected in a defined volume and counted, paralleled with their characterization through FACS. We found 2500 SLAM HSC/lower limbs, therefore reaching a total of 12,500 SLAM HSC/mouse (2500*100/20). This number is in accordance with other published papers (Chen, J., et al. (2008). Experimental hematology, 36(10), 1236-1243; Karpova, D., et al. (2017). Blood, 129(21), 2939-2949; and Singh, P., et al. (2020). Stem cells (Dayton, Ohio), 38(7), 849-859). • To determine the total number of SLAM HSC that egressed from the BM post-G7AB mobilization, we examined the BM of mobilized mice. 1100 SLAM HSC were recovered in the lower limbs, reaching a total of 5500 SLAM HSC in the BM of mobilized mice. Therefore, to determine the number of SLAM HSC egressed, the number of SLAM HSC present post-mobilization was subtracted from the total number of SLAM HSC present in the steady state mouse, leading to an assessment of 7000 SLAM HSC egressing from the BM (12500-5500). • The mobilized SLAM HSC/mL was calculated based on the bleeding performed at the peak of mobilization in mobilized mice (FIG. 2G, right panel). The blood was analyzed through hematocytometer (WBC/mL) and FACS staining (% subpopulation). […]

[3] = system: WBC, LSK and SLAM HSC; assay: Mobilization of WBC, LSK and SLAM HSC into the circulation of C57BL/6J CD45.2 mice; type: in vivo; details: addition of BIO5192 to G7A (G7AB)
Protocol: We tested two mobilization regimens in mice, one modeling a clinically approved protocol using G-CSF and AMD3100 (G7A), and the other one also comprising BIO5192 (G7AB). C57BL/6J CD45.2 mice were treated with G-CSF using a subcutaneous pump for a week combined with either AMD3100, or the combination of AMD3100 and BIO5192, delivered intraperitoneally at day 6 and 7 (FIG. 1A; FIG. 6B).
The addition of BIO5192 led to a higher mobilization of WBC, LSK and SLAM HSC, leading to an additional 2-fold increase of SLAM HSC over G7A levels.
as §1

[4] = target: VLA-4 (Homo sapiens, UniProt P05556+P13612); details: VLA-4 versus α4β7 integrin; Ramirez et al. 2009; cited from earlier work
VLA-4, sequence (P13612 34-1032): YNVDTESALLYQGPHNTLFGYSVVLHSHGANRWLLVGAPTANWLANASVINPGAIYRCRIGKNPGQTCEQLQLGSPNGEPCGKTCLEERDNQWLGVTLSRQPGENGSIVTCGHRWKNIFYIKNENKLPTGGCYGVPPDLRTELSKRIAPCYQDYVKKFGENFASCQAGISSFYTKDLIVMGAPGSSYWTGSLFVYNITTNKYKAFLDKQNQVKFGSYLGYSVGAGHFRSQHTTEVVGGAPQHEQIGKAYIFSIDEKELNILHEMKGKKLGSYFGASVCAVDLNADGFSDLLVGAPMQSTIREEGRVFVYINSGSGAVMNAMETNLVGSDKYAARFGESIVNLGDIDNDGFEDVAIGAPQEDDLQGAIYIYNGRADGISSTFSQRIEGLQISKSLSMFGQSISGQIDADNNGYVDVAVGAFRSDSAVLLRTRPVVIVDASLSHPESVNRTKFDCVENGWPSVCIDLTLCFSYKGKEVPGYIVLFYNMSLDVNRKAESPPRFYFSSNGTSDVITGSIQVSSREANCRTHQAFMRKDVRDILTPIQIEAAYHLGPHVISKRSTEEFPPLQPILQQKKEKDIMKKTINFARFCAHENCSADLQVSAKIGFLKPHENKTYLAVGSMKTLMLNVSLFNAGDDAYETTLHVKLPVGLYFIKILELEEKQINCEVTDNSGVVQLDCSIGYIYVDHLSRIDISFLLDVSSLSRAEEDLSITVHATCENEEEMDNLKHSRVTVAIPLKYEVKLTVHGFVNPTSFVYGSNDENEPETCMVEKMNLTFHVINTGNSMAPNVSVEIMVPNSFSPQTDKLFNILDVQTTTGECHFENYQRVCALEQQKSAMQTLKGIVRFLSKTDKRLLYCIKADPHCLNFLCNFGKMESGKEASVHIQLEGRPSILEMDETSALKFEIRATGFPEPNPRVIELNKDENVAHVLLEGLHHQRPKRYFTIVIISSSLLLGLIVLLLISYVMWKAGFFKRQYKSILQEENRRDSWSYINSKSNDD
VLA-4, sequence (P05556 21-798): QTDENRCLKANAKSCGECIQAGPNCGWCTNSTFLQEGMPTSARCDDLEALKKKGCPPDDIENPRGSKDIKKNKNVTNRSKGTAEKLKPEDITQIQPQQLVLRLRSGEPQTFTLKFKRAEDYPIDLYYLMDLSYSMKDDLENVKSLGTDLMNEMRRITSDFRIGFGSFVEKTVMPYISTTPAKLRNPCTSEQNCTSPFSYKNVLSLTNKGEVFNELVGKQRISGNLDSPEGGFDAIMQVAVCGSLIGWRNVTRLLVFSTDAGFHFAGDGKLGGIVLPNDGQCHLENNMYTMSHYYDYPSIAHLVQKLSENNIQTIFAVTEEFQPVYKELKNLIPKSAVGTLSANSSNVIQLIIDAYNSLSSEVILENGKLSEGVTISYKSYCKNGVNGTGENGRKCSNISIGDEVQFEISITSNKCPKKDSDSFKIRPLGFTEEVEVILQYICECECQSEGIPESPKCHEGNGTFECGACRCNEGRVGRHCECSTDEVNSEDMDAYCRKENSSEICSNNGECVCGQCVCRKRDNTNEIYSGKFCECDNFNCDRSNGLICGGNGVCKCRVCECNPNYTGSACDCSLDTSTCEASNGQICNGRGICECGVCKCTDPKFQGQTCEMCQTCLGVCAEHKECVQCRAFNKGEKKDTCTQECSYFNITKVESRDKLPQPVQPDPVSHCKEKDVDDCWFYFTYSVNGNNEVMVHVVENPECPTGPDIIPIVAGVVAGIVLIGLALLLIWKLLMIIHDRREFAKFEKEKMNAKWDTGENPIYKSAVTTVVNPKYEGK

[5] = system: CD45.1 Lin^− donor cells; assay: M-HSCT: donor CD45.1 chimerism after mobilization of CD45.2 recipients; type: in vivo, C57BL/6J CD45.2 mice; details: addition of BIO5192 to the G-CSF/AMD3100 protocol (G7AB); 2×10^6 CD45.1 Lin^− cells; PB
Description: To test if these levels of mobilization, and the subsequent BM niche availability, were sufficient to allow engraftment of donor cells, 2×10^6 CD45.1 lineage negative (Lin^−) cells, purified from the BM, were transplanted into CD45.2 congenic recipients after the last injection of AMD3100 or AMD3100/BIO5192 (FIG. 1A, C; FIG. 6D).
Donor mice between 6 and 10 weeks of age were euthanized by CO2, and BM cells were retrieved from femurs, tibias, and humeri. HSPCs were purified by Lin− selection using the mouse Lineage Cell Depletion Kit (Miltenyi Biotec) according to the manufacturer's instructions. Cells were then cultured (for 2 hours or overnight) in serum-free StemSpan medium (StemCell Technologies) containing penicillin, streptomycin, glutamine, and a combination of mouse cytokines (20 ng/ml IL-3, 100 ng/ml SCF, 100 ng/ml Flt-3L, 50 ng/ml TPO all from PeproTech), at a concentration of 2-5×10^6 cells.ml^−1. Purified Lin^− cells were transplanted at a total dose of 2×10^6 cells/mouse into 8 to 12-week-old mobilized mice, three hours after the last injection of AMD3100 and/or Bio5192. Serial collections of blood from the retro-orbital vein were performed to monitor the hematological parameters and donor cell engraftment. At the end of the experiment, BM, thymus and spleen, and lymph nodes were harvested and analyzed.

[6] = system: CXCL12; assay: ELISA on BM extracellular extracts, CXCL12; type: in vivo, Cd40Ig^−/− mice
Protocol: (§2) For ELISA performed on BM matrix, femurs and tibias were repeatedly flushed with 1 mL of cold PBS. Cells were pelleted by centrifugation at 300 g for 10 minutes at 4° C., supernatant was then collected and stored at −80° C. ELISA has been performed following manufacturer instruction after a 1:100 dilution with 1× Assay Diluent for MMP9 (Thermo Scientific) or on undiluted BM matrix for CXCL12 (Sigma-Aldrich).

[7] = system: MMP9; assay: ELISA on BM extracellular extracts, MMP9; type: in vivo, Cd40Ig^−/− mice
Protocol: as §2

## c1ccc(CNCc2ccc(CN3CCCNCCNCCCNCC3)cc2)nc1 [AMD3465]
[1]; AMD3100 or AMD3465, donor cells transplanted at the peak of mobilization
  exchange efficiency: remained unchanged
[1]; AMD3465 compared to AMD3100 in the standard protocol with G-CSF and BIO5192
  mobilization efficiency: not affected

## Cc1ccccc1NC(=O)Nc1ccc(CC(=O)N(C)[C@@H](CC(C)C)C(=O)NCC[C@H](NC(=O)[C@@H]2CCCN2S(=O)(=O)c2cc(Cl)cc(Cl)c2)C(=O)O)cc1 [BIO5192]
[2]; BIO5192 added to G-CSF and AMD3100
  further increase of mobilized LSK: 5 fold
[3]
  additional increase of SLAM HSC over G7A levels: 2 fold
[4]
  affinity for VLA-4 higher than for the related α4β7 integrin: 250- to 1000 fold
[5]
  donor chimerism, median: 30%

## c1cc(CN2CCCNCCNCCCNCC2)ccc1CN1CCCNCCNCCCNCC1 [AMD3100, plerixafor]
[2]; addition of AMD3100 to the standard G-CSF treatment
  increase of mobilized LSK: 3 fold
[2]; post injection, PB analysis
  time of peak of mobilization of WBC, LSK and SLAM HSC: around 3 hours

B1: G-CSF: granulocyte colony-stimulating factor (Lenograstim) delivered by osmotic pump (protein, UniProt P09919 31-207, looked up)
Granulocyte …: TPLGPASSLPQSFLLKCLEQVRKIQGDGAALQEKLVSECATYKLCHPEELVLLGHSLGIPWAPLSSCPSQALQLAGCLSQLHSGLFLYQGLLQALEGISPELGPTLDTLQLDVADFATTIWQQMEELGMAPALQPTQGAMPAFASAFQRRAGGVLVASHLQSFLEVSYRVLRHLAQP
[6]
  CXCL12 in the BM stroma: decreased
[7]
  MMP9 in the BM stroma: increased
[2]; PB after mobilization protocols
  blood neutrophils and monocytes counts: highly increased
[2]; with versus without G-CSF mobilization
  level of CXCR4 expression on circulating SLAM HSC: lower
